What was measured:
rat [1] = details: Prenatal developmental toxicity study, sprague dawley, Inhalation, Whole-Body, dose end: 20 GD
rat [2] = details: Subchronic oral toxicity in rodents; wistar; Inhalation; Whole-Body; dose end: 90 day; group: systemic; systemic / clinical chemistry / alkaline phosphatase (alp/alk) / alkaline phosphatase (alp/alk) + systemic / clinical chemistry / lactic …
mouse = details: Combined chronic toxicity/carcinogenicity, cd1, Oral, Feed, dose end: 104 week, group: systemic
dog = details: Subchronic oral toxicity in nonrodent, beagle, Capsule, dose end: 26 week, group: systemic
rat [3] = details: Multigenerational reproductive toxicity study, wistar, Oral, Feed, dose end: 3 generation
rat [4] = details: Combined chronic toxicity/carcinogenicity; sprague dawley; Oral; Feed; dose end: 2 year; group: systemic; systemic / in life observation / body weight / body weight + systemic / in life observation / food consumption / food consumption
rat [5] = details: Subchronic oral toxicity in rodents, wistar, [Not Specified], dose end: 13 week, group: systemic
[6] = group: developmental, systemic / in life observation / body weight / fetal weight
[7] = group: maternal, systemic / in life observation / body weight / body weight gain + systemic / in life observation / food consumption / food consumption
[8] = systemic / in life observation / clinical signs / defecation (diarrhea)
[9] = systemic / in life observation / clinical signs / defecation (diarrhea) + systemic / in life observation / clinical signs / headflicking + …
[10] = group: offspring, systemic / in life observation / body weight / offspring (pup) weight + systemic / in life observation / body weight / offspring (pup) …
[11] = group: parental, systemic / in life observation / body weight / body weight + systemic / in life observation / body weight / body weight gain
[12] = group: reproductive, reproductive / offspring survival early / litter size / litter size + reproductive / offspring survival early / birth index / live birth …
[13] = systemic / clinical chemistry / aminopyrine-n-demethylase / aminopyrine-n-demethylase + systemic / in life observation / body weight / body …

## Cc1ccc(C)c(C)c1 [1,2,4-Trimethylbenzene]
Rat [1]; [6]
  LEL: 600 ppm
  LOAEL: > 600 ppm
  NEL: 300 ppm
  NOAEL: ≥ 600 ppm
Rat [1]; [7]
  LEL: 600 ppm
  LOAEL: > 600 ppm
  NEL: 300 ppm
  NOAEL: ≥ 600 ppm
Rat [2]
  LEL: 25 ppm
  LOAEL: > 250 ppm
  NEL: < 25 ppm
  NOAEL: ≥ 250 ppm

## CC1(C)C(C=C(Cl)C(F)(F)F)C1C(=O)OC(C#N)c1cccc(Oc2ccccc2)c1 (stereo not given) [Cyhalothrin]
mouse; systemic / in life observation / body weight / body weight + systemic / in life observation / body weight / body weight gain + systemic / in…
  NEL: 3 mg/kg/day
mouse; systemic / in life observation / clinical signs / hunched posture + systemic / in life observation / clinical signs / piloerection
  NOAEL: 15 mg/kg/day
mouse; systemic / in life observation / clinical signs / hunched posture + systemic / in life observation / clinical signs / piloerection + …
  LOAEL: 75 mg/kg/day
mouse; systemic / in life observation / clinical signs / piloerection
  LEL: 15 mg/kg/day
dog; [8]
  LEL: 2.5 mg/kg/day
  LOAEL: 2.5 mg/kg/day
dog; [9]
  NEL: 1 mg/kg/day
  NOAEL: 1 mg/kg/day
Rat [3]; [10]
  LEL: 1.5 mg/kg/day
  LOAEL: 5 mg/kg/day
  NEL: 0.5 mg/kg/day
  NOAEL: 1.5 mg/kg/day
Rat [3]; [11]
  LEL: 1.5 mg/kg/day
  LOAEL: 5 mg/kg/day
  NEL: 0.5 mg/kg/day
  NOAEL: 1.5 mg/kg/day
Rat [3]; group: reproductive, reproductive / offspring survival early / litter size / litter size
  NEL: 1.5 mg/kg/day
Rat [3]; [12]
  LEL: 5 mg/kg/day
  LOAEL: > 5 mg/kg/day
  NOAEL: ≥ 5 mg/kg/day
Rat [4]
  LEL: 12.5 mg/kg/day
  LOAEL: 12.5 mg/kg/day
  NEL: 2.5 mg/kg/day
  NOAEL: 2.5 mg/kg/day
Rat [5]; systemic / clinical chemistry / aminopyrine-n-demethylase / aminopyrine-n-demethylase
  LEL: 2.5 mg/kg/day
Rat [5]; [13]
  NEL: 0.5 mg/kg/day
  NOAEL: 2.5 mg/kg/day
Rat [5]; systemic / in life observation / body weight / body weight gain
  LOAEL: 12.5 mg/kg/day

From EPA's ToxRefDB 2
